Test results as given in ChEMBL document CHEMBL6074680, “Structure-Based Discovery of a Series of Covalent, Orally Bioavailable, and Selective BFL1 Inhibitors” (J Med Chem, 2024).

What was measured:
BCL2A1/BID = target: T1, BCL2A1/BID (Homo sapiens, UniProt Q16548); assay: Inhibition of BFL-1/ BH3 (unknown origin) interaction incubated for 2 hrs by TR-FRET assay; assay type: protein assay
T1 sequence (Q16548 whole entry): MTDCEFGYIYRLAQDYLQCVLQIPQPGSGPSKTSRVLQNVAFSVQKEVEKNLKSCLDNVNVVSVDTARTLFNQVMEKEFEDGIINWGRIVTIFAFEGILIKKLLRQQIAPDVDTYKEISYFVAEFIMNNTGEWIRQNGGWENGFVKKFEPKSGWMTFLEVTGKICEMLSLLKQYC
T1 sequence (P55957 whole entry): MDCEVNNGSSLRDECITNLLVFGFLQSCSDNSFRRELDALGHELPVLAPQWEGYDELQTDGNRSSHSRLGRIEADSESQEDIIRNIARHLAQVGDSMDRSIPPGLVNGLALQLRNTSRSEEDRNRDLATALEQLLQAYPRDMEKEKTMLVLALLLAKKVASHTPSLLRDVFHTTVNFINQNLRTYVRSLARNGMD

SU-DHL-1 [1] = assay: Induction of apoptosis in human SU-DHL-1 cells assessed as caspase activation in presence of AZD5991 incubated for 6 hrs by caspaseGlo 3/7 reagent based assay; assay type: functional, cell-based; conditions: SU-DHL-1, 6 h
[2] = target: Induced myeloid leukemia cell differentiation protein Mcl-1 (Homo sapiens, UniProt Q07820); assay: Inhibition of MCL1 (unknown origin) by FRET assay
Sequence of Induced myeloid leukemia cell differentiation protein Mcl-1 (Q07820 whole entry): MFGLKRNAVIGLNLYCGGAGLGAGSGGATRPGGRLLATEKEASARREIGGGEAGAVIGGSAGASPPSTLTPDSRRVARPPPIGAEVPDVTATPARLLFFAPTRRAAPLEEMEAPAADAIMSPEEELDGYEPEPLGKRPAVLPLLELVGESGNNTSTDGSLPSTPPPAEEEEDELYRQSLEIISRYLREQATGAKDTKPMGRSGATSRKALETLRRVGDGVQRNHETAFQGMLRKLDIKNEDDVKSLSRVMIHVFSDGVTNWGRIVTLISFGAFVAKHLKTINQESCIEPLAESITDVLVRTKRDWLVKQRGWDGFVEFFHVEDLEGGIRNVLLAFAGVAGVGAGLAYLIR

[3] = Metabolic stability in human hepatocytes assessed as intrinsic clearance measured per 10^6 cells; assay type: ADME, cell-based, Hepatocyte; conditions: read-out: CLH
[4] = Metabolic stability in rat hepatocytes assessed as intrinsic clearance measured per 10^6 cells; assay type: ADME, cell-based, Hepatocyte
SU-DHL-1 [5] = assay: Antiproliferative activity against human SU-DHL-1 cells assessed as cell viability incubated for 24 hrs by celltiter-glo assay; assay type: functional, cell-based; conditions: SU-DHL-1, 24 h
[6] = Metabolic stability in mouse hepatocytes assessed as intrinsic clearance measured per 10^6 cells; assay type: ADME, cell-based, Hepatocyte; conditions: read-out: CLH
[7] = Lipophilicity, log D of compound in 1-octanol at pH 7.4 incubated for 4 hrs by HPLC-UV analysis; assay type: physicochemical; conditions: 1-octanol / aqueous phase at pH 7.4, pH 7.4
[8] = Apparent permeability across apical to basolateral side in human Caco-2 cells measured upto 120 mins by LC-MS/MS analysis; assay type: ADME, cell-based
[9] = Half life in CD-1 mouse at 1 mg/kg, po or 0.5 mg/kg, iv measured upto 24 hrs by LC-MS/MS analysis; assay type: ADME, organism-based; conditions: in vivo
[10] = Plasma protein binding in mouse assessed as unbound fraction; assay type: ADME, cell-free
[11] = Volume of distribution at steady state in CD-1 mouse at 1 mg/kg, po or 0.5 mg/kg, iv measured upto 24 hrs by LC-MS/MS analysis; assay type: ADME, organism-based; conditions: in vivo
Bcl-2-like protein 1 = Bcl-2-like protein 1 (Homo sapiens, UniProt Q07817); assay: Inhibition of Bcl-Xl (unknown origin) by FRET assay
Sequence of Bcl-2-like protein 1 (Q07817 whole entry): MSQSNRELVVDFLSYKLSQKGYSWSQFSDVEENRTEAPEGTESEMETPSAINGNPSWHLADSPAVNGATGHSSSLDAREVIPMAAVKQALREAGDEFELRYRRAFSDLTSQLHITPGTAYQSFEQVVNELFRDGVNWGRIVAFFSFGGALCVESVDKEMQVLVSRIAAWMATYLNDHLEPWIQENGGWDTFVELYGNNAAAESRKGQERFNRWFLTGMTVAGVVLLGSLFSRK

[12] = target: Apoptosis regulator Bcl-2 (Homo sapiens, UniProt P10415); assay: Inhibition of BCL2 (unknown origin) by FRET assay
Sequence of Apoptosis regulator Bcl-2 (P10415 whole entry): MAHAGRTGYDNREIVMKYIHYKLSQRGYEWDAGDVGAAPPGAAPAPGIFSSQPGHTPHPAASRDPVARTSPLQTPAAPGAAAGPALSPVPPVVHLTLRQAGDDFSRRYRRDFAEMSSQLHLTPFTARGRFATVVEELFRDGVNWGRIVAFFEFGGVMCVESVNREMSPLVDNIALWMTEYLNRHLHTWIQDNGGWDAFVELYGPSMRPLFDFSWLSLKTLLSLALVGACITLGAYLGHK

[13] = Metabolic stability in human liver microsome assessed as intrinsic clearance; assay type: ADME; conditions: human liver microsomes, read-out: CLH
[14] = GSH reactivity in PBS buffer at pH 7.4 assessed as half life by LC-UV/MS analysis; assay type: physicochemical

Structure (SMILES)	IC50 (BCL2A1/BID)	EC50 (SU-DHL-1 [1])	further results
C=CC(=O)N(c1ccc(O[C@@H]2CC[C@@H](N)C2)c(Cl)c1)[C@@H](C)c1ccc(Cl)cc1	24 nM	120 nM	–
C=CC(=O)N(c1ccc(O[C@@H]2CC[C@@H](N)C2)cc1)[C@H](CNS(C)(=O)=O)c1ccc(Cl)cc1	2800 nM	> 10000 nM	–
C=CC(=O)N(c1ccc(O[C@@H]2CC[C@@H](N)C2)cc1)[C@@H](CC(N)=O)c1ccc(Cl)cc1	43 nM	490 nM	IC50 [2]: > 100 µM
C=CC(=O)N(c1ccc(O[C@@H]2CC[C@@H](NC(=O)NCC(C)(C)N(C)C)C2)c(F)c1)[C@@H](C)c1ccc(Cl)cc1	3.9 nM	30 nM	hepatocyte CLint [3]: 6.1 µL/min/1e6 cells; hepatocyte CLint ([4]; rat hepatocytes, read-out: CLH): 14 µL/min/1e6 cells; EC50 (SU-DHL-1 [5]): 87 nM; hepatocyte CLint [6]: 73 µL/min/1e6 cells; logD at 4 h [7]: 2.8
C=C(C)C(=O)N(Cc1ccc(C(F)(F)F)cc1)c1ccc(O[C@@H]2CC[C@@H](N)C2)cc1 (racemic)	> 10000 nM	–	–
C=CC(=O)N(c1ccc(O[C@@H]2CC[C@@H](N)C2)c(F)c1)[C@@H](CC(C)(C)O)c1ccc(Cl)cc1	11 nM	42 nM	hepatocyte CLint [3]: 5.9 µL/min/1e6 cells; hepatocyte CLint ([4]; rat hepatocytes, read-out: CLH): 7.3 µL/min/1e6 cells; EC50 (SU-DHL-1 [5]): 58 nM; hepatocyte CLint [6]: 15 µL/min/1e6 cells; logD at 4 h [7]: 1.5
C=CC(=O)N(c1ccc(O[C@@H]2CC[C@@H](N)C2)cc1)[C@H](c1ccc(Cl)cc1)c1cncnc1	33 nM	120 nM	–
C=CC(=O)N(c1ccc(O[C@@H]2CC[C@@H](NC(=O)N[C@@H]3CCS(=O)(=O)C3)C2)c(F)c1)[C@@H](C)c1ccc(C(F)(F)F)c(C#N)c1	87 nM	910 nM	hepatocyte CLint ([4]; rat hepatocytes, read-out: CLH): 262 µL/min/1e6 cells; logD at 4 h [7]: 3.2
CNS(=O)(=O)OCC(=O)N(Cc1ccc(Cl)cc1)c1ccc(O[C@@H]2CC[C@@H](N)C2)cc1	6500 nM	–	–
C=CC(=O)N(c1ccc(O[C@@H]2CC[C@@H](N)C2)cc1)[C@@H](COC)c1ccc(Cl)cc1	–	450 nM	IC50 [2]: > 100 µM
C=CC(=O)N(c1ccc(O[C@@H]2CC[C@@H](NC(=O)CCCN(C)C)C2)cc1)[C@@H](C)c1ccc(Cl)cc1	74 nM	610 nM	–
C[C@@H](c1ccc(Cl)cc1)N(C(=O)/C=C/CN(C)C)c1ccc(O[C@@H]2CC[C@@H](NC(=O)NC3CS(=O)(=O)C3)C2)c(F)c1	10 nM	110 nM	Papp A→B at 2 h [8]: < 11 ×10⁻⁶ cm/s; hepatocyte CLint [3]: 2.6 µL/min/1e6 cells; half-life [9]: 162 min; fraction unbound [10]: 0.085; EC50 (SU-DHL-1 [5]): 110 nM; hepatocyte CLint [6]: 23 µL/min/1e6 cells; Vdss [11]: 4.6 L/kg; IC50 (Bcl-2-like protein 1): > 30 µM; logD at 4 h [7]: 2.7; IC50 [12]: > 30 µM
C=CC(=O)N(c1ccc(O[C@@H]2CC[C@@H](NC(=O)NCCN(C)C)C2)cc1)[C@@H](C)c1ccc(Cl)cc1	50 nM	500 nM	–
C=CC(=O)N(c1ccc(O[C@@H]2CC[C@@H](NC(=O)N[C@@H]3CCS(=O)(=O)C3)C2)c(F)c1)[C@@H](CC(C)(C)O)c1ccc(Cl)cc1	4.2 nM	19 nM	hepatocyte CLint [3]: 5.3 µL/min/1e6 cells; hepatocyte CLint ([4]; rat hepatocytes, read-out: CLH): 52 µL/min/1e6 cells; EC50 (SU-DHL-1 [5]): 49 nM; hepatocyte CLint [6]: 49 µL/min/1e6 cells; logD at 4 h [7]: 3.1
C=CC(=O)N(c1ccc(O[C@@H]2CC[C@@H](N)C2)c(C)c1)[C@@H](C)c1ccc(Cl)cc1	77 nM	650 nM	–
CC#CC(=O)N(c1ccc(O[C@@H]2CC[C@@H](N)C2)cc1)[C@@H](C)c1ccc(Cl)cc1	300 nM	–	–
CN1CCC[C@@H]1/C=C/C(=O)N(Cc1ccc(Cl)cc1)c1ccc(O[C@@H]2CC[C@@H](N)C2)cc1	240 nM	–	–

Structure (SMILES)	IC50 (BCL2A1/BID)	EC50 (SU-DHL-1 [1])	further results
C=C(Cl)C(=O)N(Cc1ccc(C(F)(F)F)cc1)c1ccc(O[C@@H]2CC[C@@H](N)C2)cc1 (racemic)	1000 nM	–	hepatocyte CLint ([4]; hepatocytes): 52 µL/min/1e6 cells; microsomal CLint [13]: 7.8 µL/min/mg; half-life [14]: 85 min; logD at 4 h [7]: 2.4
C=CC(=O)N(c1ccc(O[C@@H]2CC[C@@H](N)C2)cc1)[C@@H](CC(C)(C)O)c1ccc(Cl)cc1	33 nM	520 nM	IC50 [2]: > 100 µM
C=CC(=O)N(c1ccc(O[C@@H]2CC[C@@H](N)C2)c(C#N)c1)[C@@H](C)c1ccc(Cl)cc1	14 nM	120 nM	–
C=CC(=O)N(c1ccc(O[C@@H]2CC[C@@H](NC(=O)N[C@@H]3CCS(=O)(=O)C3)C2)c(F)c1)[C@@H](CC(N)=O)c1ccc(Cl)cc1	5 nM	79 nM	hepatocyte CLint [3]: 25 µL/min/1e6 cells; hepatocyte CLint ([4]; rat hepatocytes, read-out: CLH): 74 µL/min/1e6 cells; hepatocyte CLint [6]: 45 µL/min/1e6 cells; logD at 4 h [7]: 2.2
C=C(F)C(=O)N(Cc1ccc(C(F)(F)F)cc1)c1ccc(O[C@@H]2CC[C@@H](N)C2)cc1 (racemic)	> 7800 nM	–	–
C=CC(=O)N(c1ccc(O[C@@H]2CC[C@@H](N)C2)cc1)[C@@H](CCNS(C)(=O)=O)c1ccc(Cl)cc1	17 nM	90 nM	EC50 (SU-DHL-1 [5]): 130 nM
C=CC(=O)N(c1ccc(O[C@@H]2CC[C@@H](NC(=O)N[C@H]3CCNC3)C2)cc1)[C@@H](C)c1ccc(Cl)cc1	29 nM	3100 nM	IC50 [2]: > 100 µM
C[C@@H](c1ccc(Cl)cc1)N(C(=O)/C=C/CN(C)C)c1ccc(O[C@@H]2CC[C@@H](N)C2)cc1	90 nM	–	–
C=CC(=O)N(c1ccc(O[C@@H]2CC[C@@H](NC(=O)NCCN(C)C)C2)c(Cl)c1)[C@@H](C)c1ccc(Cl)cc1	4.5 nM	28 nM	hepatocyte CLint [3]: 9.8 µL/min/1e6 cells; hepatocyte CLint ([4]; rat hepatocytes, read-out: CLH): 17 µL/min/1e6 cells; EC50 (SU-DHL-1 [5]): 72 nM; hepatocyte CLint [6]: 42 µL/min/1e6 cells; logD at 4 h [7]: 3.5
C=CC(=O)N(c1ccc(O[C@@H]2CC[C@@H](N)C2)cc1)[C@@H](CNS(C)(=O)=O)c1ccc(Cl)cc1	31 nM	350 nM	IC50 [2]: > 100 µM
C=CC(=O)N(c1ccc(O[C@@H]2CC[C@@H](N)C2)cc1)[C@@H](C[C@H](C)O)c1ccc(Cl)cc1	18 nM	140 nM	EC50 (SU-DHL-1 [5]): 170 nM
C=CC(=O)N(c1ccc(O[C@@H]2CC[C@@H](N)C2)cc1)[C@@H](C)c1ccc(Cl)cc1	–	1100 nM	–
C=CC(=O)N(c1ccc(O[C@@H]2CC[C@@H](N)C2)cc1F)[C@@H](C)c1ccc(Cl)cc1	48 nM	410 nM	–
C=CC(=O)N(c1ccc(O[C@@H]2CC[C@@H](N)C2)cc1OC)[C@@H](C)c1ccc(Cl)cc1	880 nM	2400 nM	–
C=CC(=O)N(c1ccc(O[C@@H]2CC[C@@H](NC(=O)NC3CCS(=O)(=O)C3)C2)cc1)[C@@H](C)c1ccc(Cl)cc1 (mixture of isomers)	40 nM	110 nM	–
C[C@@H](c1ccc(Cl)cc1)N(C(=O)/C=C/CN(C)C)c1ccc(O[C@@H]2CC[C@@H](NC(=O)N[C@@H]3CCS(=O)(=O)C3)C2)c(F)c1	8.5 nM	52 nM	hepatocyte CLint [3]: 1.5 µL/min/1e6 cells; hepatocyte CLint ([4]; rat hepatocytes, read-out: CLH): 28 µL/min/1e6 cells; EC50 (SU-DHL-1 [5]): 110 nM; hepatocyte CLint [6]: 17 µL/min/1e6 cells; IC50 (Bcl-2-like protein 1): > 30 µM; logD at 4 h [7]: 2.5; IC50 [12]: > 30 µM
